Test results reported in patent US11452709B2, “Compositions and methods for preventing and treating radiation-induced bystander effects caused by radiation or radiotherapy” (The Regents of the University of Colorado, priority 2017, dated 2022).

Molecular target: T1, CTSB protease (Homo sapiens, UniProt P07858)
T1 construct: purchased Sino Biological Inc. 10483-H08H-10
Experiment: CTSB protease activity inhibition in vitro (z-Arg-Arg-AMC substrate)
Format: biochemical
Details: for Inhibition rate (%) of the CTSB protease activity / inhibition at 1000 µM: 1 mM of each compound; for inhibition at 1000 µM: read-out: Inhibition rate (%) of the CTSB protease activity

O=c1cc(-c2ccc(O)cc2)oc2cc(O)cc(O)c12 [Apigenin, 5,7-Dihydroxy-2-(4-hydroxyphenyl)-4H-1-benzopyran-4-one]
Inhibition rate (%) of the CTSB protease activity: 70.93%
inhibition at 1000 µM: 65 to 85%

Nc1nc2ncc(CNc3ccc(C(=O)N[C@@H](CCC(=O)O)C(=O)O)cc3)nc2c(=O)[nH]1 [Folic acid]
Enhancement of the activity of the CTSB protease: more than 4 folds
EC50 (read-out: EC50 (activation of the CTSB protease)): 1260 nM

O=c1c(O[C@@H]2O[C@H](CO)[C@@H](O)[C@H](O)[C@H]2O)c(-c2ccc(O)c(O)c2)oc2cc(O)cc(O)c12 [Isoquercitrin, 2-(3,4-Dihydroxyphenyl)-5,7-dihydroxy-3-[(2S,3R,4S,5S,6R)-3,4,5-trihydroxy-6-(hydroxymethyl)oxan-2-yl]oxychromen-4-one]
Inhibition of the activity of CTSB (in words): inhibit the activity of CTSB
Inhibition rate (%) of the CTSB protease activity: 68.98%
inhibition at 1000 µM: 65 to 85%

O=C(OC[C@H]1O[C@@H](OC(=O)c2cc(O)c(O)c(OC(=O)c3cc(O)c(O)c(O)c3)c2)[C@H](OC(=O)c2cc(O)c(O)c(OC(=O)c3cc(O)c(O)c(O)c3)c2)[C@@H](OC(=O)c2cc(O)c(O)c(OC(=O)c3cc(O)c(O)c(O)c3)c2)[C@@H]1OC(=O)c1cc(O)c(O)c(OC(=O)c2cc(O)c(O)c(O)c2)c1)c1cc(O)c(O)c(OC(=O)c2cc(O)c(O)c(O)c2)c1 [Tannic acid]
inhibition at 1000 µM: 69.3%

NH2-Arg-Leu-Ala-COOH—Se
Inhibition rate (%) of the CTSB protease activity: 86.93%
